From patent US20250127166A1, “METHOD FOR PREVENTING INSECT DAMAGE TO PLANTS” (AJINOMOTO CO., INC., priority 2022, published 2025)
“Also recorded” adds a separate entry of the source.

Tests used:
Pieris rapae [1] = assay: 4-hour feeding damage test on Arabidopsis thaliana (Example 3); type: in vivo; conditions: for pest damage-suppressing activity: Pieris rapae larva, 4-hour feeding damage test
From the text: The recombinant Arabidopsis thaliana […]: : GCaMP3 was used as a plant material, and cut was formed on the first leaf of the plant grown in the same manner as in Example 1 and treated with a compound. Compound 1 was used as the compound. Sorbitol was used as the negative control, and glutamic acid as the positive control. The test was repeatedly conducted 10 times (using independent plants and pests) per plot. One hour after the treatment with the compound, the plant body and 2-week old larva of Pieris rapae were placed in the same container to perform a 4-hour feeding damage test. Weights of the plant body and larva were measured before and after the test to evaluate the weight of the feeding-damaged plant and the weight gain rate of the pest.

AtOPR^3 gene = assay: Pest damage resistance gene expression induction by qPCR; type: in vivo, Arabidopsis thaliana; conditions: sixth leaves, 30 minutes after compound treatment of cut first leaf; relative to AtACT8; FIG. 1
From the text: As the pest damage resistance gene, the AtOPR^3 (12-oxophytodienoic acid reductase, involved in the jasmonic acid biosynthesis) gene, which is a typical pest damage resistance gene, was selected. As an internal standard, the AtACT8 gene was selected. The recombinant Arabidopsis thaliana p35S: : GCaMP3 was used as a plant material, and cut was formed on the first leaf of the plant cultivated in the same manner as in Example 1 and treated with a compound. As the compound, Compounds 1 and 34 were used. Sixth leaves at 0 and 30 minutes after the compound treatment were collected and frozen in liquid nitrogen. The total RNA was extracted from the frozen leaf samples (50 to 200 mg) by using RNeasy Plant Mini Kit (Qiagen) according to the protocol thereof. The obtained total RNA was subjected to a residual genomic DNA-removing treatment with RNase free DNase I by using TURBO DNase Kit (Ambion) according to the protocol of the kit. By using this total RNA sample and SuperScriptIII First-Strand Synthesis System for RT-PCR (Invitrogen), single-stranded cDNA was prepared. […] The relative expression amount of the AtOPR^3 gene to that of the internal standard AtACT8 gene was calculated by the AACt method. The test was repeatedly performed 4 or 5 times, and the average of the results was calculated.

[2] = test system: glutamate receptor of Arabidopsis thaliana; assay: Real-time imaging assay of Ca2+ signals in recombinant Arabidopsis thaliana p35S::GCaMP3; type: in vivo; conditions: 3 μL of 100 mM solution (10 mM for some compounds with low solubility) applied to leaf cut; GCaMP3 fluorescence
Method: In this example, Ca2+signals produced by contact of Compounds 1-58 and 67-75 with the glutamate receptor of Arabidopsis thaliana were analyzed by a real-time imaging assay in which Ca2+is visualized by fluorescence color development. That is, by using a recombinant Arabidopsis thaliana p35S: : GCaMP3, which incorporated the gene encoding the calcium-sensitive fluorescent protein GCaMP3, as a material, changes in intracellular Ca2+ levels caused by treatments with Compounds 1-58 and 67-75 were detected as fluorescence luminance of GCaMP3, and thereby Ca2+signal transduction in plant bodies was analyzed in real time.
The real-time imaging assay of the Ca2+signals was performed as follows.
As the plant material, 2-week old recombinant Arabidopsis thaliana p35S: : GCaMP3 grown on sterile agar medium was used. A small cut of about 1 mm was made at the tip of the first leaf with scissors, and the plant was allowed to stand for 35 minutes. The plant was then placed under the field of view of the fluorescence microscope SMZ25 (Nikon Solutions), and 3 μL of a compound solution was applied to the leaf cut. The generated Ca2+signals were examined in real time with ORCA-Flash4.0 V2 (Hamamatsu Photonics). […] Compounds that produced Ca2+signals in one or more leaves were determined to be compounds that induce Ca2+signals.

Spodoptera litura = assay: Komatsuna leaf disc feeding damage test (Example 5); type: in vivo; conditions: one day
Method: Glutamic acid was used as a positive control, and Jasmomate Ekizai (the active substance is prohydrojasmon, a typical injurious hormone-like substance), which is the only resistance inducer for pest damage on the market, was used as a control. The test was conducted for 10 replicates per plot (independent plants and pests).
The plant material was leaf discs collected from komatsuna (Brassica rapa var. perviridis) seedlings grown for 1 month after seeding on culture soil in pots, and the test organism was early second instar larva of Spodoptera litura. Compound 1 was used as a 1 mM solution in Silwet L-77 4,000-fold dilution solution prepared by adding Silwet L-77 to distilled water as a solvent. As a negative control, 100 mM or 1 mM sorbitol was used, and 100 mM or 1 mM glutamic acid was used as a positive control. […] One day after the release, the number of surviving Spodoptera litura larvae in each test container was counted, and a photograph was taken from a height of 5 cm above the container with the lid open so that the entire image could be photographed. Image analysis software (ImageJ) was used to determine the damage area (feeding damage area), and the average damage area ratio was calculated for each treatment plot.

Pieris rapae [3] = assay: 4-hour feeding damage test on Arabidopsis thaliana, comparison with commercial product (Example 4); type: in vivo; conditions: Compound 1 at 100 mM on leaf cut, 4-hour test
Method: The recombinant Arabidopsis thaliana […]: : GCaMP3 was used as a plant material, and cut was formed on the first leaf of the plant cultivated in the same manner as those of Examples 1, 2, and 3 and treated with a compound. Compound 1 and Jasmomate were used as the compound. Compound 1 was used at 100 mM, and Jasmomate was used at a 500-fold dilution concentration (0.4 mM as prohydrojasmon concentration), which is the usual recommended treatment concentration thereof. Sorbitol was used as a negative control. The test was conducted for 15 replicates per plot (independent plants and insects). For Jasmomate, a spray treatment of the leaves was performed (spray plot, Jasmomate was sprayed twice at the concentration mentioned above with an atomizer). The test of the spray plot was conducted for 10 replicates (independent plants and insects). One hour after the compound treatment, the plant body and 2-week old larva of Pieris rapae were placed in the same container to perform a 4-hour feeding damage test. The larva was weighed before and after the test, and the weight gain rate of the pest was evaluated.

Row | Structure (SMILES) | weight of the feeding-damaged plant (Pieris rapae [1]; 2-week old Pieris rapae larva, 4-hour test 1 hour after treatment, vs sorbitol plot, FIG. 2) | weight gain rate of the pest (Pieris rapae [1]; 2-week old Pieris rapae larva, 4-hour test 1 hour after treatment, vs sorbitol plot, FIG. 3) | pest damage-suppressing activity (Pieris rapae [1]) | pest damage resistance gene (AtOPR^3) expression-inducing activity (AtOPR^3 gene) | Ca2+signal induction [2] | pest damage-suppressing effect (feeding inhibitory effect) (Spodoptera litura; 1 mM in Silwet L-77 4,000-fold dilution solution) | pest damage-suppressing activity (Pieris rapae [3]) | weight gain rate of the pest (Pieris rapae [3]; vs sorbitol plot, FIG. 4) | pest damage-suppressing tendency (Spodoptera litura; 100 mM, compared with 100 mM sorbitol plot)
1 | CC(C)OC(=O)CC[C@H](N)C(=O)O [Compound 1] | lower in the Compound 1-treated plot than in the sorbitol-treated plot | lower in the Compound 1-treated plot than in the sorbitol-treated plot | distinct pest damage-suppressing activity was observed | equal to or greater than that of glutamic acid; also recorded: high pest damage resistance gene expression-inducing activity | strong Ca2+signal induction | higher than those observed for the 100 mM glutamic acid treatment plot and Jasumomate treatment plot | distinct pest damage-suppressing activity was observed | lower in the Compound 1-treated plot than in the sorbitol-treated plot | –
2 | N[C@@H](CCC(=O)N[C@@H](CCC(=O)O)C(=O)O)C(=O)O [Compound 34] | – | – | – | equal to or greater than that of glutamic acid | strong Ca2+signal induction | – | – | – | –
3 | N[C@@H](CCC(=O)O)C(=O)O [glutamic acid, reference compound] | – | – | no pest damage-suppressing activity was observed | – | – | – | – | – | greater pest damage-suppressing tendency was observed
